One data set deals with KATO III cell. In words: (§1) Cytotoxicity against human KATO III cells assessed as cell viability at 100 uM after 3 days by MTT assay relative to control. It counts as functional. (In general: Tetrazolium assays rely on reduction of a dye to a coloured formazan, in cell work by metabolically active cells.)
Another data set concerns ChaGo. Briefly: (§2) Cytotoxicity against human ChaGo cells assessed as cell viability at 100 uM after 3 days by MTT assay relative to control. The class given is functional.
In data set [1] the test system is HepG2. In words: Cytotoxicity against human HepG2 cells assessed as cell viability at 100 uM after 3 days by MTT assay relative to control. The class given is functional. The note with it: for viability at 100 µM: HepG2, 72 h, read-out: Activity.
Data set [2] concerns BT-474. In words: Cytotoxicity against human BT474 cells assessed as cell viability at 100 uM after 3 days by MTT assay relative to control. It counts as functional. The note with it: for viability at 100 µM: BT-474, 72 h, read-out: Activity.
For another data set, the system named is Ca-Ski. Briefly: (§3) Cytotoxicity against human CaSki cells assessed as cell viability at 100 uM after 3 days by MTT assay relative to control. It counts as functional.
The test system of data set [3] is SW-620. In words: Cytotoxicity against human SW620 cells assessed as cell viability at 100 uM after 3 days by MTT assay relative to control. The note with it: for viability at 100 µM: SW-620, 72 h, read-out: Activity. It counts as functional.
Data set [4] is described as follows: as §1. To be noted: 72 h, read-out: Activity. It counts as functional.
The target of data set [5] is DNA topoisomerase 2-alpha (Homo sapiens) (UniProt P11388). In words: Inhibition of human DNA topoisomerase-2-mediated decatenation of kinetoplast DNA at 50 uM after 1 hr by electrophoretic analysis relative to control.
A short description of data set [6]: as §2. The class given is functional. The note with it: 72 h, read-out: Activity.
For data set [7], the target named is DNA topoisomerase 2-alpha (Homo sapiens) (UniProt P11388). In words: Inhibition of human DNA topoisomerase-2-mediated decatenation of kinetoplast DNA at 10 uM after 1 hr by electrophoretic analysis relative to control.
For data set [8] the target is unchanged. In words: Inhibition of human DNA topoisomerase-2-mediated decatenation of kinetoplast DNA at 30 uM after 1 hr by electrophoretic analysis relative to control.
Another data set concerns WI-38. Briefly: Cytotoxicity against human WI38 cells at 1 to 60 uM after 3 days by MTT assay. The class given is cell-based. To be noted: wi-38, 72 h.
The nature of data set [9]: Cytotoxicity against human CaSki cells after 3 days by MTT assay. The class given is functional, cell-based. The note with it: Ca-Ski, 72 h.
In data set [10] the target is DNA topoisomerase 2-alpha (Homo sapiens) (UniProt P11388). Briefly: Inhibition of human DNA topoisomerase-2-mediated decatenation of kinetoplast DNA at 100 uM after 1 hr by electrophoretic analysis relative to control.
In data set [11] the test system is Calf thymus DNA. In words: Binding affinity to calf thymus DNA assessed as melting temperature at 30 uM by thermal denaturation assay. It counts as nucleic-acid assay. To be noted: Bos taurus.
Data set [12] concerns HepG2. In words: Cytotoxicity against human HepG2 cells after 3 days by MTT assay. The class given is functional, cell-based. To be noted: HepG2, 72 h.
Data set [13] is described as follows: Cytotoxicity against human KATO III cells after 3 days by MTT assay. To be noted: 72 h. It counts as functional, cell-based, KATO III cell.
Data set [14] deals with Calf thymus DNA. Briefly: Binding affinity to calf thymus DNA assessed as change in melting temperature at 30 uM by thermal denaturation assay. To be noted: Bos taurus. The class given is nucleic-acid assay.
The nature of data set [15]: as §3. To be noted: Ca-Ski, 72 h, read-out: Activity. It counts as functional.
The species named for data set [16] is Bos taurus. In words: Displacement of ethidium bromide from calf thymus DNA by Stern-Volmer plot analysis.
The nature of data set [17]: Cytotoxicity against human ChaGo cells after 3 days by MTT assay. The note with it: 72 h. The class given is functional, cell-based.
For data set [18], the system named is BT-474. Briefly: Cytotoxicity against human BT474 cells after 3 days by MTT assay. It counts as functional, cell-based. To be noted: BT-474, 72 h.
Data set [19] concerns SW-620. In words: Cytotoxicity against human SW620 cells after 3 days by MTT assay. The note with it: SW-620, 72 h. It counts as functional, cell-based.
The species named for data set [20] is Bos taurus. Briefly: Displacement of ethidium bromide from calf thymus DNA by fluorescence spectroscopic analysis.

Calls of active or inactive are those of the source. The calls are words filed in the database; no cut-off is given here.

The values below come from ChEMBL document CHEMBL3286110, “Synthesis, cytotoxicity, DNA binding and topoisomerase II inhibition of cassiarin A derivatives” (Bioorg Med Chem Lett, 2014).

Chain of DNA topoisomerase 2-alpha (Homo sapiens) (P11388 whole entry): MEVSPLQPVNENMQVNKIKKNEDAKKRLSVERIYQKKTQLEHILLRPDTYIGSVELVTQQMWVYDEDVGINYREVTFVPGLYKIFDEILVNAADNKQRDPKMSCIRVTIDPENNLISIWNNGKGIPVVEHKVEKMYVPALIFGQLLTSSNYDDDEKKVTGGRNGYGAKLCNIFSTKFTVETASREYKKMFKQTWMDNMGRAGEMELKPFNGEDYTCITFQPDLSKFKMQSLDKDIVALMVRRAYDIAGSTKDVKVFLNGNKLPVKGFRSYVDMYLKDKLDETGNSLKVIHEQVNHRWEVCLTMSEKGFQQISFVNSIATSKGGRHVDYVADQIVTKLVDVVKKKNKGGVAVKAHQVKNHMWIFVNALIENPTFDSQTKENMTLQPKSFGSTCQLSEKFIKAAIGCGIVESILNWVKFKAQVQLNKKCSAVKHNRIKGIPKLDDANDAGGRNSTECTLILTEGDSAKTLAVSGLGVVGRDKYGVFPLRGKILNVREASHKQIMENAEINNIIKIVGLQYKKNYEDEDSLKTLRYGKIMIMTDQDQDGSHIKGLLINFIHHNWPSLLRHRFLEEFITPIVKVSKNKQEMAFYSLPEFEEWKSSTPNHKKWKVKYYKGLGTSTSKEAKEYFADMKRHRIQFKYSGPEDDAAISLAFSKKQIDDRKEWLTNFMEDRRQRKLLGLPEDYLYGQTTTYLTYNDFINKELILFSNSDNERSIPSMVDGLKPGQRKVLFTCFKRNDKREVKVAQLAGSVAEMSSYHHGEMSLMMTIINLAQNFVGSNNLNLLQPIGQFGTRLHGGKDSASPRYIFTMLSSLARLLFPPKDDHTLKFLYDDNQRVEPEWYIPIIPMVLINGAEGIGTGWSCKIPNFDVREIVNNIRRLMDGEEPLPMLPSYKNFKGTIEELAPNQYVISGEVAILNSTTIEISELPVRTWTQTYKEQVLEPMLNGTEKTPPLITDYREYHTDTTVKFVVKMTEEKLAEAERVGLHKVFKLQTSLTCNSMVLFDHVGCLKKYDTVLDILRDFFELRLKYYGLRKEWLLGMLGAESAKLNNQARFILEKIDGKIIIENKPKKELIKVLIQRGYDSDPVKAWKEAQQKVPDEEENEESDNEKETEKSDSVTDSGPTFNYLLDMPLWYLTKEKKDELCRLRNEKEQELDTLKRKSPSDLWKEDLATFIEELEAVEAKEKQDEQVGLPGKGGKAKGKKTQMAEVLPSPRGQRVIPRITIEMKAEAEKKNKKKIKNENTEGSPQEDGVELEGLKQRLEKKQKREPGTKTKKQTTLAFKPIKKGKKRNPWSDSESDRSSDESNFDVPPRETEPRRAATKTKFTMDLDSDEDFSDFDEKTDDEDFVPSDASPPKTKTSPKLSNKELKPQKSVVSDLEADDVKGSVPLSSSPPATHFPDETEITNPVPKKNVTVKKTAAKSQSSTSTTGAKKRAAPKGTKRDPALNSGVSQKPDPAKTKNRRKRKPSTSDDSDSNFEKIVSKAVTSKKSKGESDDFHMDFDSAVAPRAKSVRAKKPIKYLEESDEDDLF

As to `CCCCC(=O)Oc1cc2c3c(nc(C)cc3c1)C=C(C)O2`, the result in the data set with KATO III cell, in the data set with ChaGo, with HepG2 [1], in the data set with BT-474 [2], with Ca-Ski and in the data set with SW-620 [3] was inactive.
On to `CC1=Cc2nc(C)cc3cc(OC(=O)c4ccc(C)cc4)cc(c23)O1`, for which the result with KATO III cell, with ChaGo, in the data set with HepG2 [1], with BT-474 [2], in the data set with Ca-Ski and with SW-620 [3] was inactive.
`CCC(=O)Oc1cc2c3c(nc(C)cc3c1)C=C(C)O2`: the result in the data set with KATO III cell, in the data set on ChaGo, in the data set on HepG2 [1], in the data set with BT-474 [2], with Ca-Ski and in the data set on SW-620 [3] was inactive.
Turning to `CCCC(=O)Oc1cc2c3c(nc(C)cc3c1)C=C(C)O2`, the result with KATO III cell, in the data set on ChaGo, in the data set on HepG2 [1], with BT-474 [2], with Ca-Ski and in the data set on SW-620 [3] was inactive.
In general, inhibition refers to the change of the read-out against control, counted positive when it falls. For orientation: IC50 means the midpoint of a concentration-inhibition curve. In general, Tm refers to the temperature at which the thermal transition is half complete. Consider `CC1=Cc2nc(C)cc3cc(O[Se]c4ccccc4)cc(c23)O1`, for which the viability at 100 µM (in data set [4]; in data set [6]; in the data set on HepG2 [1]; with BT-474 [2]; with SW-620 [3]) was above 20% in each case. In addition, the inhibition in [5] was 95.7%; in [7] it was 31.5%; in data set [8] it was 75.7%; in [10], above 95%. The Activity result with WI-38 is recorded as “Non-toxic”. The compound further showed an IC50 in data set [9] of 29.7 µM. Besides, in the data set with Calf thymus DNA [11], the midpoint of thermal melting (Tm) was determined as 70 °C.
Consider `CC1=Cc2nc(C)cc3cc(OC(=O)c4ccc(F)cc4)cc(c23)O1`, for which the outcome in the data set on KATO III cell, with ChaGo, in the data set on HepG2 [1], in the data set with BT-474 [2], in the data set on Ca-Ski and in the data set with SW-620 [3] was inactive.
`CC1=Cc2nc(C)cc3cc(OC(=O)c4ccc(Cl)cc4)cc(c23)O1`: the result in the data set with KATO III cell, in the data set on ChaGo, in the data set with HepG2 [1], in the data set on BT-474 [2], in the data set on Ca-Ski and in the data set with SW-620 [3] was inactive.
Usually ΔTm stands for the shift of the melting midpoint relative to a reference. Consider `CC1=Cc2nc(C)cc3cc(OCCOCCO)cc(c23)O1`, for which the viability at 100 µM (in data set [6]; in the data set on BT-474 [2]; in data set [15]; in the data set on SW-620 [3]) was above 20% throughout. For the same compound, the IC50 in the data set on HepG2 [12] came to 29.8 µM; in [13], 10.1 µM. Moreover, the Activity result in the data set with WI-38 was “Non-toxic”. In the data set on Calf thymus DNA [14], the shift in melting temperature (ΔTm) was 4.8 °C. Further, the inhibition result in data set [10] is “inactive”. In addition, in the data set listed under Bos taurus [16], the KSV came out at 4.3 ×10³ /M. The Tm with Calf thymus DNA [11] is 75.7 °C.
`CC1=Cc2nc(C)cc3cc(O)cc(c23)O1` [CASSIARIN A]: the viability at 100 µM (in data set [4]; in data set [6]; with HepG2 [1]; in the data set with BT-474 [2]; in data set [15]; with SW-620 [3]) was above 20% in each case. Besides, the midpoint of thermal melting (Tm) with Calf thymus DNA [11] was determined as 70.7 °C.
On to `CC1=Cc2nc(C)cc3cc(OC(=O)CCCBr)cc(c23)O1`, for which the result in the data set on KATO III cell, with ChaGo, in the data set on HepG2 [1], in the data set with BT-474 [2], in the data set on Ca-Ski and in the data set with SW-620 [3] was inactive.
Consider `CN(C)CCN1C(=O)c2cccc3cc(N)cc(c23)C1=O` [AMONAFIDE], for which the concentration for half-maximal inhibition (IC50) was determined as 1.05 µM in [17]; 1.71 µM in the data set on HepG2 [12]; 9.24 µM in data set [13]; 9.96 µM in data set [9]; 37.8 µM with BT-474 [18]; 0.32 µM with SW-620 [19]. Also, in the data set with WI-38, the Activity result is given as “Toxic”. Also, the ΔTm with Calf thymus DNA [14] was 8.2 °C. The same compound yielded an inhibition in data set [10] of 61.8%. The Tm in the data set on Calf thymus DNA [11] was found to be 78.9 °C.
For `CC1=Cc2nc(C)cc3cc(OCCN(C)C)cc(c23)O1`, the IC50 is 29.5 µM in [17]; 10.1 µM with HepG2 [12]; 9.82 µM in data set [13]; 30.2 µM in data set [9]; 9.85 µM with SW-620 [19]. In addition, in the data set on BT-474 [2], the viability at 100 µM is above 20%. Further, the Activity entry in the data set with WI-38 was “Non-toxic”. Further, the thermal shift (ΔTm) with Calf thymus DNA [14] was above 15.3 °C. This compound also had an inhibition in data set [10] of 30.1%. Also, the KSV in the data set filed under Bos taurus [16] came out at 2.1 ×10⁴ /M. For the same compound, the midpoint of thermal melting (Tm) in the data set with Calf thymus DNA [11] was above 86 °C. The Kapp in the data set filed under Bos taurus [20] stood at 2.1 ×10⁶ /M.
Take `CC1=Cc2nc(C)cc3cc(OC(=O)c4ccc([N+](=O)[O-])cc4)cc(c23)O1`: the outcome in the data set with KATO III cell, in the data set on ChaGo, in the data set on HepG2 [1], in the data set with BT-474 [2], in the data set with Ca-Ski and in the data set with SW-620 [3] was inactive.
`CC1=Cc2nc(C)cc3cc(OCCO)cc(c23)O1`: the result with KATO III cell, with ChaGo, with HepG2 [1], with BT-474 [2], with Ca-Ski and with SW-620 [3] was inactive.
